In patent US20080260716A1, “Method and Composition for High Level Disinfection Employing Quaternary Ammonium Compounds” (priority 2004, published 2008):

Key:
B. subtilis spores = assay: AOAC sporicidal test, kill time; format: cell-based; details: for B. subtilis (no kill): 48 hrs
C. sporogens spores = assay: AOAC sporicidal test, kill time; format: cell-based; details: for C. sporogens (no kill): 48 hrs
[1] = test 4.2, 5% QUAT, 25° C. + 1% borax
[2] = test 4.3, 1% QUAT, 40° C. + 1% borax
[3] = test 4.4, 2% QUAT, 40° C. + 1% borax
[4] = test 4.5, 5% QUAT, 40° C. + 1% borax
[5] = test 4.6, 2% QUAT, 50° C. + 1% borax
[6] = test 4.7, 5% QUAT, 50° C. + 1% borax
[7] = test 5.1, 1% QUAT, 40° C. + ultrasound 10 min each hour
[8] = test 5.2, 2% QUAT, 40° C. + ultrasound 10 min each hour
[9] = test 5.3, 5% QUAT, 40° C. + ultrasound 10 min each hour
[10] = test 5.4, 1% QUAT, 40° C. + ultrasound 10 min each hour
[11] = test 5.5, 2% QUAT + 1% borax, 40° C. + ultrasound 10 min each hour
[12] = test 5.6, 5% QUAT + 1% borax, 40° C. + ultrasound 10 min each hour
[13] = test 5.7, 2% QUAT + 1% borax + Protease, 40° C. + ultrasound 10 min each hour
[14] = test 6.1, 2% QUAT + 0.2% Protease (Savinase 16 L), 25° C.
[15] = test 6.2, 2% QUAT + 0.2% Protease (Savinase 16 L), 40° C.
[16] = test 6.3, 2% QUAT + 0.2% Protease (Savinase 16 L), 40° C. + 1% borax
[17] = test 6.4, 2% QUAT + 0.2% Protease (Savinase 16 L), 50° C.
[18] = test 6.5, 2% QUAT + 0.2% Protease (Savinase 16 L), 50° C. + 1% borax
[19] = test 6.6, 2% QUAT + 0.2% Protease (Savinase 16 L), 40° C. + ultrasound 10 min each hour + 1% borax
[20] = test 6.7, 2% QUAT + 1% borax + Protease, 40° C. + ultrasound 10 min each hour
[21] = Table 6 unnumbered test, 2% QUAT + 0.2% Protease (Savinase 16 L), 25° C. + 1% borax
[22] = test 4.1, 2% QUAT, 25° C. + 1% borax

Q: For benzalkonium chloride [QUAT], which “B. subtilis (no kill)” value (B. subtilis spores; [1]) is on record?
A: (no kill) (“No kill” means less than 2 log reduction from the initial population)

Q: And the “Kill Time B. subtilis” value (B. subtilis spores; [2])?
A: <1 h

Q: And the “Kill Time B. subtilis” value (B. subtilis spores; [3])?
A: <1 h

Q: What about the “Kill Time B. subtilis” value (B. subtilis spores; [4]) of the same substance?
A: <1 h

Q: And the “Kill Time B. subtilis” value (B. subtilis spores; [5])?
A: <1 h

Q: What about the “Kill Time B. subtilis” value (B. subtilis spores; [6]) of the same substance?
A: <1 h

Q: What about the “Kill Time B. subtilis” value (B. subtilis spores; [7]) of the same substance?
A: <2 h

Q: What about the “Kill Time B. subtilis” value (B. subtilis spores; [8]) of the same substance?
A: <1 h

Q: And the “Kill Time B. subtilis” value (B. subtilis spores; [9])?
A: <1 h

Q: What about the “Kill Time B. subtilis” value (B. subtilis spores; [10]) of the same substance?
A: <1 h

Q: And the “Kill Time B. subtilis” value (B. subtilis spores; [11])?
A: <1 h

Q: And the “Kill Time B. subtilis” value (B. subtilis spores; [12])?
A: <1 h

Q: And the “Kill Time B. subtilis” value (B. subtilis spores; [13])?
A: <1 h

Q: What about the “Kill Time B. subtilis” value (B. subtilis spores; [14]) of the same substance?
A: >48 h

Q: And the “B. subtilis (no kill)” value (B. subtilis spores; [14])?
A: (no kill) (“No kill” means less than 2 log reduction from the initial population)

Q: What about the “Kill Time B. subtilis” value (B. subtilis spores; [15]) of the same substance?
A: <2 h

Q: What about the “Kill Time B. subtilis” value (B. subtilis spores; [16]) of the same substance?
A: <1 h

Q: What about the “Kill Time B. subtilis” value (B. subtilis spores; [17]) of the same substance?
A: <1 h

Q: What about the “Kill Time B. subtilis” value (B. subtilis spores; [18]) of the same substance?
A: <1 h

Q: And the “Kill Time B. subtilis” value (B. subtilis spores; [19])?
A: <1 h

Q: And the “Kill Time B. subtilis” value (B. subtilis spores; [20])?
A: <1 h

Q: What about the “Kill Time C. sporogens” value (C. sporogens spores; Table 3 Prior art, 0.25% QUAT, 25° C.) of the same substance?
A: >24 h

Q: What about the “Kill Time C. sporogens” value (C. sporogens spores; [21]) of the same substance?
A: >48 h

Q: What about the “C. sporogens (no kill)” value (C. sporogens spores; [21]) of the same substance?
A: (no kill) (“No kill” means less than 2 log reduction from the initial population)

Q: And the “kill time of C. sporogenes” value (C. sporogens spores; above 1% w/w of quat, 40° C.)?
A: less than 2 hours

Q: And the “Kill Time C. sporogens” value (C. sporogens spores; test 1.1, 0.025% QUAT, 25° C.)?
A: >24 h

Q: What about the “Kill Time C. sporogens” value (C. sporogens spores; test 1.2, 0.25% QUAT, 25° C.) of the same substance?
A: >24 h

Q: And the “Kill Time C. sporogens” value (C. sporogens spores; test 2.1, 5% QUAT, 30° C.)?
A: <2 h

Q: What about the “Kill Time C. sporogens” value (C. sporogens spores; test 2.2, 1.0% QUAT, 40° C.) of the same substance?
A: <2 h

Q: And the “Kill Time C. sporogens” value (C. sporogens spores; test 2.3, 2.0% QUAT, 40° C.)?
A: <2 h

Q: And the “Kill Time C. sporogens” value (C. sporogens spores; test 2.4, 5.0% QUAT, 40° C.)?
A: <1 h

Q: And the “Kill Time C. sporogens” value (C. sporogens spores; test 2.5, 1.0% QUAT, 50° C.)?
A: <2 h

Q: What about the “Kill Time C. sporogens” value (C. sporogens spores; test 2.6, 2.0% QUAT, 50° C.) of the same substance?
A: <2 h

Q: What about the “Kill Time C. sporogens” value (C. sporogens spores; test 2.7, 5.0% QUAT, 50° C.) of the same substance?
A: <1 h

Q: What about the “Kill Time C. sporogens” value (C. sporogens spores; test 2.7, 5.0% QUAT, 50° C., listed as quat) of the same substance?
A: less than one hour

Q: What about the “Kill Time C. sporogens” value (C. sporogens spores; test 2.8, 1.0% QUAT, 80° C.) of the same substance?
A: <1 h

Q: And the “Kill Time C. sporogens” value (C. sporogens spores; test 2.8, 1.0% QUAT, 80° C., listed as quat)?
A: less than one hour

Q: And the “Kill Time C. sporogens” value (C. sporogens spores; test 3.1, 0.25% QUAT, 40° C.)?
A: >24 h

Q: And the “Kill Time C. sporogens” value (C. sporogens spores; test 3.2, 0.25% QUAT, 50° C.)?
A: >24 h

Q: And the “Kill Time C. sporogens” value (C. sporogens spores; test 3.3, 0.25% QUAT, 60° C.)?
A: >24 h

Q: What about the “Kill Time C. sporogens” value (C. sporogens spores; test 3.4, 0.25% QUAT, 62° C. + ultrasound) of the same substance?
A: >24 h

Q: And the “Kill Time C. sporogens” value (C. sporogens spores; test 3.5, 1.0% QUAT, 25° C.)?
A: >48 h

Q: And the “C. sporogens (no kill)” value (C. sporogens spores; test 3.5, 1.0% QUAT, 25° C.)?
A: (no kill) (“No kill” means less than 2 log reduction from the initial population)

Q: What about the “Kill Time C. sporogens” value (C. sporogens spores; test 3.6, 2.0% QUAT, 25° C.) of the same substance?
A: >48 h

Q: What about the “C. sporogens (no kill)” value (C. sporogens spores; test 3.6, 2.0% QUAT, 25° C.) of the same substance?
A: (no kill) (“No kill” means less than 2 log reduction from the initial population)

Q: What about the “Kill Time C. sporogens” value (C. sporogens spores; test 3.7, 5.0% QUAT, 25° C.) of the same substance?
A: >48 h

Q: What about the “C. sporogens (no kill)” value (C. sporogens spores; test 3.7, 5.0% QUAT, 25° C.) of the same substance?
A: (no kill) (“No kill” means less than 2 log reduction from the initial population)

Q: And the “Kill Time C. sporogens” value (C. sporogens spores; test 3.8, 0.6%, 40° C.)?
A: >24 h

Q: And the “Kill Time C. sporogens” value (C. sporogens spores; test 3.9, 0.6% QUAT, 50° C.)?
A: <16 h

Q: And the “Kill Time C. sporogens” value (C. sporogens spores; [22])?
A: >48 h

Q: What about the “C. sporogens (no kill)” value (C. sporogens spores; [22]) of the same substance?
A: (no kill) (“No kill” means less than 2 log reduction from the initial population)

Q: What about the “Kill Time C. sporogens” value (C. sporogens spores; [1]) of the same substance?
A: >48 h

Q: What about the “C. sporogens (no kill)” value (C. sporogens spores; [1]) of the same substance?
A: (no kill) (“No kill” means less than 2 log reduction from the initial population)

Q: What about the “Kill Time C. sporogens” value (C. sporogens spores; [2]) of the same substance?
A: <1 h

Q: And the “Kill Time C. sporogens” value (C. sporogens spores; [3])?
A: <1 h

Q: What about the “Kill Time C. sporogens” value (C. sporogens spores; [4]) of the same substance?
A: <1 h

Q: And the “Kill Time C. sporogens” value (C. sporogens spores; [5])?
A: <1 h

Q: And the “Kill Time C. sporogens” value (C. sporogens spores; [6])?
A: <1 h

Q: What about the “Kill Time C. sporogens” value (C. sporogens spores; [7]) of the same substance?
A: <2 h

Q: What about the “Kill Time C. sporogens” value (C. sporogens spores; [8]) of the same substance?
A: <1 h

Q: And the “Kill Time C. sporogens” value (C. sporogens spores; [9])?
A: <1 h

Q: What about the “Kill Time C. sporogens” value (C. sporogens spores; [10]) of the same substance?
A: <1 h

Q: And the “Kill Time C. sporogens” value (C. sporogens spores; [11])?
A: <1 h

Q: What about the “Kill Time C. sporogens” value (C. sporogens spores; [12]) of the same substance?
A: <1 h

Q: What about the “Kill Time C. sporogens” value (C. sporogens spores; [13]) of the same substance?
A: <1 h

Q: And the “Kill Time C. sporogens” value (C. sporogens spores; [14])?
A: >48 h

Q: And the “C. sporogens (no kill)” value (C. sporogens spores; [14])?
A: (no kill) (“No kill” means less than 2 log reduction from the initial population)

Q: And the “Kill Time C. sporogens” value (C. sporogens spores; [15])?
A: <1 h

Q: What about the “Kill Time C. sporogens” value (C. sporogens spores; [16]) of the same substance?
A: <1 h

Q: And the “Kill Time C. sporogens” value (C. sporogens spores; [17])?
A: <1 h

Q: What about the “Kill Time C. sporogens” value (C. sporogens spores; [18]) of the same substance?
A: <1 h

Q: What about the “Kill Time C. sporogens” value (C. sporogens spores; [19]) of the same substance?
A: <1 h

Q: What about the “Kill Time C. sporogens” value (C. sporogens spores; [20]) of the same substance?
A: <1 h
